The text below walks through data of a melting point compilation (Tetko et al.; mined from patent text by program, amines drawn as free bases though some values may be those of a salt).

What is called melting point is the temperature of the solid-liquid transition. For `CS(=O)c1ccc(C2=NN(S(=O)(=O)c3ccc(I)cc3)CCC2)cc1` (stereo not drawn), the melting point lay in the range of 191 to 193 °C. Under `O=[N+]([O-])c1ccc(C(=NO)c2ccc([N+](=O)[O-])cc2)cc1` stands 194 °C. Turning to `Cn1c(C(F)(F)F)c(-c2ccc(C[C@H](NC(=O)c3c(F)cccc3C(F)(F)F)C(=O)O)cc2)c(=O)n(C)c1=O`, the melting point lay within 122 to 125 °C. As to `Cc1nc(C)c(Cc2cccs2)c(NCc2ccc(-c3ccccc3-c3nnn[nH]3)cc2)n1`, the melting point fell in the range of 262 to 263 °C. `CCCOc1ccc2c(c1)C(c1ccc(OC)cc1OCC(=O)O)C(CN)C2c1ccc2c(c1)OCO2` (stereo not drawn) yielded a melting point of 237 to 242 °C.

Turning to `O=C(Nc1ccccc1)c1ccc2c(c1)N(C1CC1)CNS2(=O)=O`, the melting point was in the range of 232 to 234 °C.

`COc1ccc(Cl)cc1C(=O)NCc1ccc(-c2ccc(OC(C)(C)CO)cc2)cc1` showed a melting point of 109 °C. The same measure for `Cc1noc(NS(=O)(=O)c2ccccc2C#N)c1Br`: 152 to 155 °C; for `CC1(C)CCC(C)(C)c2nc3c(nc21)CCc1c(-c2ccc(C(=O)O)cc2)cn(Cc2cccnc2)c1-3`: 149 to 151 °C. `CS(=O)c1ccc(-c2nn(CC3CC3)c(=O)cc2-c2ccc(Cl)cc2)cc1` (stereo not drawn) showed a melting point of 152 °C. Take `Cc1nc(SCc2cnccc2C(=O)O)sc1CC(=O)O`: the melting point was in the range of 207 to 211 °C. The same measure for `NCc1ccc(N2CCN(c3ccc(CCC(=O)O)cc3)C2=O)cc1`: over 260 °C; for `COC(=O)c1cccc(S(=O)(=O)N(C)C)c1C`: 40 to 43 °C. In turn, `OCc1nnc2n1-c1ccccc1C(c1ccccc1Cl)=NC2` yielded a melting point of 196 to 197 °C. In the case of `CON=Cc1[nH]ccc1S(=O)(=O)NC(C)(C)C`, the melting point was in the range of 99 to 101 °C. The same measure for `CC(=O)Nc1nc(/C=C\c2ccc([N+](=O)[O-])cc2)cs1`: 155 to 157 °C; for `CN(C)C=C(C=O)c1ccc(Cl)cc1Cl`: 112 to 114 °C; for `CC(C)(C)[Si](C)(C)Oc1ccc(S(N)(=O)=O)cc1`: 117 to 118 °C. Take `Cc1cccc(C)c1NC(=O)c1cc(C)n(C)n1`: the melting point was 155 °C.

Consider `NCc1noc(-c2ncn3c2[C@@H]2CCCN2C(=O)c2sccc2-3)n1`, for which the melting point fell in the range of 156 to 158 °C.

`CNC(=O)C(C)c1ccc2c(c1)CCc1ccccc1C2=O` (stereo not drawn) had a melting point of 140 °C. The same measure for `Cc1ccccc1C(CCC(=O)O)Oc1cc(OCc2ccsc2)ccc1C(=O)C(=O)O` (racemic): 173 to 175 °C; for `CC1=C(Br)C=CC(Cl)(C=NO)C1` (stereo not drawn): 77 to 78 °C; for `N#Cc1ccc(OCCN2CCN(c3cc(Cl)nnc3Cl)CC2)cc1`: 175 to 177 °C.

As for `O=C(O)Cc1ccc2c3c(cccc13)C(c1ccccc1)C2` (stereo not drawn), the melting point was 200 °C. Under `CCc1ccc(Nc2c(-c3nnc(NCCO)o3)ccc(F)c2F)c(F)c1` stands 100 to 103 °C; under `CC(C)(C)OC(=O)C(Cc1c[nH]cn1)N(C(=O)OC(C)(C)C)C(=O)OC(C)(C)C` (stereo not drawn), 98 °C. Under `CNC(=O)CNC(=O)c1cncc(F)c1` stands 201 to 202 °C.

The compound `CCOC(=O)c1ccc2nc3cscc3c(=O)n2c1` showed a melting point of 175 °C. Under `OCC1OC(n2cnc3c(N4CCOCC4)ncnc32)CC1F` (stereo not drawn) stands 175 to 178 °C.

For `CSc1nc(=O)n(-c2ccccc2F)c(=O)[nH]1`, the melting point lay in the range of 196 to 199 °C. Under `O=C(O)c1ccc(Cl)cc1Cc1ccccc1` stands 142 to 144 °C; under `CCNc1cccnc1N1CCN(C(=O)c2ccc(C(=O)NCc3ccccn3)cn2)CC1`, 129 to 131 °C; under `COC(=O)c1c(NCC(C)C)n[nH]c1C`, 100 to 103 °C. `Cc1nc2c(c(-c3ccccc3)n1)CCN(c1ccnc([C@@H](C)O)n1)C2`: the melting point lay within 114 to 116 °C. The same measure for `CC1=C(C(=O)O)C(c2ccccc2[N+](=O)[O-])C(C(=O)O)=C(C)N1`: 120 to 122 °C.

Compound `COc1cccc(C(C)(C)C(=O)O)c1` displayed a melting point of 46 to 47 °C. Under `CNC(=O)N(O)C(C)c1ccc(F)cc1F` (stereo not drawn) stands 125 to 134 °C. The same measure for `O=C1CCC(c2ccc(N3CC(CO)OC3=O)cc2)CC1` (racemic): 152 °C; for `CN(C)Cn1nc(-c2ccncc2)n(-c2ccccc2)c1=S`: 173 to 174 °C. Under `CC(C)(C)OC(=O)c1ncn2c1cc(C(=O)N1CCN(C3CC3)CC1)c1cc(Cl)ccc12` stands 229 to 233 °C; under `CN(C)c1cc(CC(C#N)=CNc2ccccc2)cc(N(C)C)c1N1CCCCC1`, 200 to 202 °C; under `CC(C)C[C@@H](C(=O)N1CCN(C(c2ccc(F)cc2)c2ccc(F)cc2)CC1)N(C)C1CCOCC1`, 56 to 65 °C.

As to `CCCCCCOc1ccc(-c2ncc(-c3ccc(O)c(F)c3F)cn2)cn1`, the melting point fell in the range of 150 to 155 °C. The same measure for `CCOC(=O)N1CCC(Cc2nc3ccccc3n2Cc2cccc(C)n2)CC1`: 160 °C; for `Cc1nnc2n1-c1ccccc1CS2`: 142 to 144 °C. The same measure for `O[C@H](COc1cccc2[nH]ccc12)CN1CC=C(c2c[nH]c3c(Cl)c(Cl)ccc23)CC1`: 140 to 145 °C. Under `CCCOCCOc1ccc(-c2ccc3c(c2)C=C(C(=O)Nc2ccc(CN(C)C4CCOCC4)cc2)CCS3(=O)=O)cc1Cl` stands 183 to 184 °C. For the compound `CCOC(=O)CC(=O)c1cc(Cl)c(F)c(Cl)c1F`, the melting point is 133 °C. The same measure for `CCC1c2ccccc2-c2cc(-c3cccc4c3oc3ccccc34)ccc2N1S(=O)(=O)c1ccc(O)cc1` (stereo not drawn): 218 to 220 °C; for `COc1ccc(C(NC(=O)CC2CCCC2)C2=CCc3ccccc32)c(C(=O)NS(=O)(=O)c2ccccc2C)c1` (stereo not drawn): 227 to 228 °C; for `CN1C(C)(C)CC(Nc2c([O-])[c+](NC3CC(C)(C)N(C)C(C)(C)C3)[c+]2[O-])CC1(C)C`: over 340 °C.

In turn, `COc1cc(CC(C#N)=CNc2ccccc2)cc(OC)c1N(C)C(C)=O` came in with a melting point of 202 to 204 °C.

In turn, `COC(=O)c1sc2cccc(C#N)c2c1N` showed a melting point of 169 to 170 °C. The same measure for `CCOC(=O)C1=C(C)NC(c2ncsc2Cl)=NC1c1ccc(F)cc1Cl` (stereo not drawn): 149 to 152 °C; for `N=C(N)c1ccc(NC(C(=O)O)c2ccccc2OCC(=O)O)cc1` (racemic): 223 °C.

With `NS(=O)(=O)c1ccc(C(=O)NCCc2ccccc2)cc1`, the melting point was 243 to 245 °C. The same measure for `CCCCCCCCCCCCOc1ccc(-c2cc3ccccc3[nH]2)cc1`: 204 °C; for `O=C(c1ccccc1)C(O)O`: 85 to 85.5 °C.

On to `N#Cc1cnc2cc(-c3cncc(CN4CCOCC4)c3)ccc2c1Nc1ccc(Oc2ccccc2)cc1`, for which the melting point was in the range of 185 to 187 °C. The same measure for `OCC1OC(OC2C(CO)OC(CO)C2O)C(O)C(O)C1O` (stereo not drawn): 162 to 164 °C; for `COc1cc2c(cc1OC)C(C)=[N+]([O-])CN2`: 161 to 163 °C; for `COc1ccc2c(c1)c(=O)n1nc(C(N)=O)cc1n2C`: over 300 °C. Consider `CCN(CC)C(=O)c1cc(-c2ccc(Cl)cc2)c2ccsc2c1`, for which the melting point was found to be 135 °C. The same measure for `CN1C(=O)CN(N=Cc2ccccc2)C1=O`: 253 to 255 °C.

In the case of `CC(C)c1ccccc1Nc1nc(N)nc2c1-c1ccccc1C2`, the melting point lay in the range of 193 to 195 °C. Under `Cc1nn(-c2ccccc2)c(-c2ccccc2)c1NC(N)=S` stands 212 to 214 °C.

In turn, `Cc1nc(Nc2ccccc2)sc1-c1ccc(Cl)c([N+](=O)[O-])c1` came in with a melting point of 162 to 165 °C. In the case of `CCCc1nc(C)c(C(=O)OCC)n1Cc1ccc2oc(-c3ccccc3NS(=O)(=O)C(F)(F)F)c(Br)c2c1`, the melting point lay in the range of 123 to 125 °C. The same measure for `O=C(O)C(CCCc1ccccc1)NS(=O)(=O)c1ccc(N2CCC(c3ccccc3)CC2)cc1` (stereo not drawn): 59 to 62 °C. The same measure for `CCOC(=O)c1nc(CCl)n(-c2ccc(Br)cc2C(=O)c2ccccn2)n1`: 96 to 97 °C; for `COc1cc(OCCCN2CCC(c3n[nH]c4cc(F)ccc34)CC2)ccc1C(C)=O`: 202 to 204 °C. Under `COC(=O)C1=C(C)OC(C)=C(C(=O)OC)C1c1ccccc1` stands 62.5 °C; under `O=C(O)C1CCCc2c(-c3ccc(Cl)cc3)noc2C1` (stereo not drawn), 215 to 217 °C. Compound `COc1ccc2c(c1)CCc1nn(-c3ccccn3)c(O)c1-2` had a melting point of 139 to 140 °C. `CCC(O)(c1ccc(Cl)cc1)c1ccc(OCc2cccc(C)n2)cc1` (stereo not drawn): the melting point is 100 to 101 °C. The same measure for `CN(C)C(=O)[C@@H]1CS[C@@H](CS)C1`: 41.8 to 44.4 °C; for `CCOC(=O)C1=C(C)NN=C(CC)C1c1ccc(Cl)cc1` (stereo not drawn): 111 °C; for `COc1ccc(COC(=O)NCCc2c[nH]c3ccccc23)cc1`: 108 to 109 °C. `CC(=O)c1ccc(C=C(C)c2ccc3c(c2)C(C)(C)CCO3)cc1` returned a melting point of 109 to 110 °C. Consider `Sc1nc2ccccc2n1CCCN1CCN(C(c2ccccc2)c2ccccc2)CC1`, for which the melting point worked out at 182 °C. With `CCCCCCCCCCCCCCCCCC(=O)c1ccc(OC)c(C(=O)O)c1`, the melting point lay in the range of 194 to 196 °C. The same measure for `Fc1ccc(-c2nc(-c3ccccn3)cs2)cc1`: 140 to 144 °C; for `CC(C)(C(=O)c1ccc(OCC(=O)O)cc1)N1CCN(c2ccncc2)CC1`: 278 to 279 °C. Under `Nc1nc(-c2ccncc2)nc(N)c1N` stands 230 to 232 °C. The same measure for `CCCCOc1ccc(S(=O)(=O)C2(C(=O)O)CCN(Cc3ccc(C#N)cc3)CC2)cc1`: 242 °C; for `CC1(CN2CCN(C(=O)OCc3ccc(C(=O)c4ccccc4)cc3)CC2)Cn2cc([N+](=O)[O-])nc2O1` (stereo not drawn): 105 to 107 °C; for `CN(CCc1ccccc1)C(=O)C(C)(Cc1c[nH]c2ccccc12)NC(=O)OC1C2CC3CC(C2)CC1C3` (stereo not drawn): 90 to 95 °C.
